Experimental data from publication PMC7823860, “Flavonoid Glycosides with a Triazole Moiety for Marine Antifouling Applications: Synthesis and Biological Activity Evaluation” (Marine Drugs, 2020).
pEC50: −log10 of the molar value. “And” between values parts separate entries of the source, which are not always exact repeats. Equal entries are not always repeated. Where two headings read alike, the source gives them in different places.

Columns and labels:
[1] = tested on: Artemia salina nauplii; assay: Artemia salina nauplii lethality (ecotoxicity) bioassay; format: in vivo; details: 25 and 50 μM, 48 h of exposure
Procedure: The brine shrimp (Artemia salina) nauplii lethality test was used to determine the toxicity of promising AF compounds to non-target organisms. Artemia salina eggs were allowed to hatch in seawater for 48 h at 25 °C. Bioassays were performed in 96-wells microplates with 15–20 nauplii per well and 200 μL of the compounds test solution. Compounds were tested at final concentrations of 25 and 50 μM (filtered seawater with 1% DMSO). All tests included K2Cr2O7 (13.6 μM) as positive control and DMSO (1%) as negative control. Bioassays were run in the dark at 25 °C, and the percentage of mortality was determined after 48 h of exposure.

[2] = tested on: Navicula sp.; assay: Biofilm-forming marine diatom growth inhibition; format: cell-based; details: 10 days
Procedure: The anti-microalgal activity of the most promising compounds was also evaluated against a benthic marine diatom, Navicula sp., purchased from the (Telde, Gran Canaria) Spanish Collection of Algae (BEA). Diatom cells were inoculated in f/2 medium (Sigma) at an initial concentration of 2–4 × 10^6 cells mL^−1 and grown in 96-well flat-bottom microtiter plates for 10 days at 20 °C. Navicula growth inhibition in the presence of each compound at 15 μM was determined in quadruplicate and quantified based on the difference in cell densities among the treatments, and cells were counted using a Neubauer counting chamber. A positive control with cycloheximide (3.55 μM) and a negative control with f/2 medium 0.1% DMSO were included.
(§1) Datasets from anti-settlement, antibacterial and anti-microalgal bioassay, and determination of AChE and Tyr activities, were analysed by one-way analysis of variance (ANOVA) followed by a multi-comparisons Dunnett’s test against negative control (p < 0.05). For the AF bioassays, the half maximum response concentration (EC50) values for each compound, when applicable, were calculated using Probit regression analysis. Significance was considered at p < 0.01, and 95% lower and upper confidence limits (95%LCL; UCL). The software IBM SPSS Statistics 26 (Armonk, New York, USA) was used for statistical analysis.

[3] = tested on: Mytilus galloprovincialis plantigrade larvae; assay: Mussel (Mytilus galloprovincialis) larvae anti-settlement bioassay; format: in vivo; details: 15 h, 15 h exposure, read-out: EC50 (minimum concentration that inhibited 50% of larval settlement); for pEC50: 95% CI in cell
Procedure: (§2) Mussel (Mytilus galloprovincialis) plantigrades were collected in juvenile aggregates during low neap tides at Memória beach, Matosinhos, Portugal (41°13′59″ N; 8°43′28″ W). In laboratory, mussel plantigrade larvae (0.5–2 mm) were isolated in a binocular magnifier (Olympus SZX2-ILLT, Tokyo, Japan) to a petri dish with filtered seawater, and those with functional foot and competent exploring behaviour were selected for the bioassays. The flavonoids were screened at 50 µM in 24-well microplates with 4 well replicates per condition and 5 larvae per well, for 15 h, in the darkness at 18 ± 1 °C, following Almeida et al. (2015). Test solutions were obtained by dilution of the compounds stock solutions (50 mM) in DMSO and prepared with filtered seawater. All bioassays included a negative control with DMSO and a positive control with CuSO4, a potent AF agent. After the exposure period, the anti-settlement activity was determined by the presence/absence of attached byssal threads produced by each individual larvae.
(§3) All compounds that caused more than 60% of settlement inhibition (≤40% of settlement) in the screening bioassay were considered active and selected for the determination of the semi-maximum response concentration that inhibited 50% of larval settlement (EC50), at compounds concentrations of 3.12, 6.25, 12.5, 25, 50, 100, 200 μM.
as §1

[4] = as above; format: in vivo; details: in vivo, mussel plantigrade larvae, read-out: LC50 (median lethal dose)
Procedure: as §2, §3, §1

[5] = target: T1, Electrophorus electric AChE Type V-S (Electrophorus electricus, UniProt O42275); assay: In vitro acetylcholinesterase (AChE) activity (Ellman); format: biochemical; details: 25, 50 and 100 μM; versus negative control, p < 0.05
T1 construct: purchased SIGMA C2888
T1 sequence (O42275 24-633): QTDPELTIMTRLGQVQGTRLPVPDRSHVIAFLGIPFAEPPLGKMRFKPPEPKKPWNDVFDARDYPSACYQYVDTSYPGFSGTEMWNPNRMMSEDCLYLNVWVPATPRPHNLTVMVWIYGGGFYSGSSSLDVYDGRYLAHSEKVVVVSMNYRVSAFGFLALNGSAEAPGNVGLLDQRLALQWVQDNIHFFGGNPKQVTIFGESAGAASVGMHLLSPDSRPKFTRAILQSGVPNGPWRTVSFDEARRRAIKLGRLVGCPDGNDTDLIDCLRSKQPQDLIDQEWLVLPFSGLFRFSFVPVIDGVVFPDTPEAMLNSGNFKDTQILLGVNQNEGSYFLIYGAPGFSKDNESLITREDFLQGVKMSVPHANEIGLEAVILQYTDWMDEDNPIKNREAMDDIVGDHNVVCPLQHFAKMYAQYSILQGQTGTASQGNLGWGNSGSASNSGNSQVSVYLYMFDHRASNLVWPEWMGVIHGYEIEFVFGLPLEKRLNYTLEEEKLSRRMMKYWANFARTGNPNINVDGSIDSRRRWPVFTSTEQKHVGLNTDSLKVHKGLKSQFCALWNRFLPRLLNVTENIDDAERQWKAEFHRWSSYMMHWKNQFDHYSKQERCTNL
Procedure: (§4) The ability of the most promising compounds to inhibit AChE and Tyr was tested to assess their potential mode of action related with neurotransmission disruption or impairment of adhesive metabolism pathways, respectively.
AChE activity was evaluated using Electrophorus electric AChE Type V-S (SIGMA C2888, E.C. 3.1.1.7), according to Ellman et al. (1961) with some modifications. Reaction solution containing 1 M phosphate buffer pH 7.2, 10 mM dithiobisnitrobenzoate (DTNB) (acid dithiobisnitrobenzoate and sodium hydrogen carbonate in phosphate buffer) and 0.075 M […] was added to pure AChE enzyme (0.25 U/mL) and each test compound (final concentration of 25, 50 and 100 μM, 1% DMSO) in quadruplicate. All tests included a positive control with eserine (200 μM, water) and a negative control with 1% DMSO in water. The optical density was measured at 412 nm in a microplate reader (Biotek Synergy HT, Winooski, Vermont, USA) during 5 min at 25 °C.

[6] = tested on: Roseobacter litoralis CECT 5395; assay: Biofilm-forming marine bacteria growth inhibition; format: cell-based; details: 15 µM, 24 h, Dunnett test p < 0.05
Procedure: For anti-bacterial screening, five strains of marine biofilm-forming bacteria from the Spanish Type Culture Collection (CECT): Cobetia marina CECT 4278, Vibrio harveyi CECT 525, Halomonas aquamarina CECT 5000, Pseudoalteromonas atlantica CECT 570, and Roseobacter litoralis CECT 5395 were used. Bacteria were inoculated and incubated for 24 h at 26 °C in marine broth (Difco) at an initial density of 0.1 (OD600) in 96 well flat-bottom microtiter plates and exposed to the test compounds at 15 μM. Test solutions were obtained by dilution of the compounds stock solutions (50 mM) in DMSO. Bacterial growth inhibition in the presence of the compounds was determined in quadruplicate at 600 nm using a microplate reader (Biotek Synergy HT, Vermont, USA). Negative and positive controls used were a solution of marine broth with DMSO, and a solution of marine broth with penicillin–streptomycin–neomycin, respectively. […]
as §1, with “Significance was considered at p < 0.01, and 95% lower and upper confidence limits (95%LCL; UCL). The software IBM SPSS Statistics 26 (Armonk, New York, USA) was used for statistical analysis.” left out

[7] = tested on: Artemia salina nauplii; parameters: method as in PMID 29936172; details: same concentrations (25 and 50 μM) and conditions; cited from earlier work
[8] = tested on: Agaricus bisporus Tyr; assay: In vitro tyrosinase (Tyr) inhibition assay (L-Dopa to dopachrome); format: biochemical
Procedure: as §4
Tyr inhibition assay was performed using Agaricus bisporus Tyr (EC1.14.18.1) according to Adhikari et al. (2008) with some modifications. The enzymatic reaction follows the catalytic conversion of L-Dopa to dopaquinone and the formation of dopachrome by measuring the absorbance at 475 nm. Briefly, Tyr (25 U/mL) was added to 50 mM phosphate buffer pH 6.5 and the tested compounds at 25, 50 and 100 μM (final concentrations, 1% DMSO). The enzymatic activity was triggered by the addition of L-dopa (25 mM). Kojic acid (1.4 mM, water) was included as positive control and 1% DMSO in water as negative control.

SMILES | pEC50 [3] | LC50 at 15 h [4] [µM] | EC50 [3] [µg/mL] | further results
COc1cc(/C=C/C(=O)c2ccc(OCc3cn([C@@H]4O[C@H](COC(C)=O)[C@@H](OC(C)=O)[C@H](OC(C)=O)[C@H]4OC(C)=O)nn3)cc2O)cc(OC)c1OC [7b, (2R,3R,4S,5R,6R)-2-(acetoxymethyl)-6-(4-((3-hydroxy-4-((E)-3-(3,4,5-trimethoxyphenyl)acryloyl)phenoxy)methyl)-1H-1,2,3-triazol-1-yl)tetrahydro-2H-pyran-3,4,5-triyl triacetate] | 5.48 | > 200 |  | mortality of Artemia salina nauplii [1]: less than 10%; diatom growth inhibition screening ([2]; 15 μM, Dunnett test p < 0.05): significant inhibitory activity; EC50 ([2]; 240 h): 41.8 µM and 30.9 µg/mL; AChE activity [5]: significantly induced
C#CCOc1ccc(C(=O)/C=C/c2ccc(OC)c(OC)c2)c(O)c1 [6a] | 4.07 | > 200 | 28.6 | bacterial growth inhibition screening [6]: significant inhibitory activity
COc1cc(-c2cc(=O)c3c(O)cc(OCc4cn([C@@H]5O[C@H](COC(C)=O)[C@@H](OC(C)=O)[C@H](OC(C)=O)[C@H]5OC(C)=O)nn4)cc3o2)cc(OC)c1OC |  |  |  | melting point: 169 to 171 °C
COc1ccc(-c2cc(=O)c3c(O)cc(OCc4cn([C@@H]5O[C@H](COC(C)=O)[C@@H](OC(C)=O)[C@H](OC(C)=O)[C@H]5OC(C)=O)nn4)cc3o2)cc1OC |  |  |  | melting point: 143 to 145 °C
N#Cc1c(-c2ccc(Cl)cc2)[nH]c(C(F)(F)F)c1Br [ECONEA] |  |  |  | lethality to Artemia salina [7]: 100%
COc1cc(-c2cc(=O)c3c(O)cc(OCc4cn(CCO[C@@H]5O[C@H](COC(C)=O)[C@@H](OC(C)=O)[C@H](OC(C)=O)[C@H]5OC(C)=O)nn4)cc3o2)cc(OC)c1OC [4b, (2R,3R,4S,5R,6R)-2-(acetoxymethyl)-6-(2-(4-(((5-hydroxy-4-oxo-2-(3,4,5-trimethoxyphenyl)-4H-chromen-7-yl)oxy)methyl)-1H-1,2,3-triazol-1-yl)ethoxy)tetrahydro-2H-pyran-3,4,5-triyl triacetate] | 4.32 | > 200 | 38.6 | 
C#CCOc1ccc(C(=O)/C=C/c2cc(OC)c(OC)c(OC)c2)c(O)c1 [6b] | 4.07 | > 200 | 31.5 | bacterial growth inhibition screening [6]: significant inhibitory activity
COc1cc(/C=C/C(=O)c2ccc(O)cc2O)cc(OC)c1OC [11b] | 5.02 | > 200 |  | mortality of Artemia salina nauplii [1]: less than 10%; AChE activity [5]: significantly induced
COCOc1ccc(C(=O)/C=C/c2cc(OC)c(OC)c(OC)c2)c(O)c1 |  |  |  | melting point: 132 to 134 °C
COc1ccc(/C=C/C(=O)c2ccc(OCc3cn(CCO[C@@H]4O[C@H](COC(C)=O)[C@@H](OC(C)=O)[C@H](OC(C)=O)[C@H]4OC(C)=O)nn3)cc2O)cc1OC [8a, (2R,3R,4S,5R,6R)-2-(acetoxymethyl)-6-(2-(4-((4-((E)-3-(3,4-dimethoxyphenyl)acryloyl)-3-hydroxyphenoxy)methyl)-1H-1,2,3-triazol-1-yl)ethoxy)tetrahydro-2H-pyran-3,4,5-triyl triacetate] | 4.45 | > 200 | 27.1 | 
COc1ccc(-c2cc(=O)c3c(O)cc(OCc4cn(CCO[C@@H]5O[C@H](COC(C)=O)[C@@H](OC(C)=O)[C@H](OC(C)=O)[C@H]5OC(C)=O)nn4)cc3o2)cc1OC [4a, (2R,3R,4S,5R,6R)-2-(acetoxymethyl)-6-(2-(4-(((2-(3,4-dimethoxyphenyl)-5-hydroxy-4-oxo-4H-chromen-7-yl)oxy)methyl)-1H-1,2,3-triazol-1-yl)ethoxy)tetrahydro-2H-pyran-3,4,5-triyl triacetate] | 4.37 | > 200 | 32.8 | 
COc1cc(-c2cc(=O)c3c(O)cc(O)cc3o2)cc(OC)c1OC [1b] | 5.08 | > 200 |  | mortality of Artemia salina nauplii [1]: less than 10%; inhibition of Tyr ([8]; 100 µM): 23.5%; Tyr activity ([8]; all the concentrations tested (25, 50 and 100 μM), versus negative control): significantly decrease Tyr activity
COc1cc(/C=C/C(=O)c2ccc(OCc3cn(CCO[C@H]4O[C@H](COC(C)=O)[C@@H](OC(C)=O)[C@H](OC(C)=O)[C@@H]4OC(C)=O)nn3)cc2O)cc(OC)c1OC [8b, (2R,3R,4S,5S,6S)-2-(acetoxymethyl)-6-(2-(4-((3-hydroxy-4-((E)-3-(3,4,5-trimethoxyphenyl)acryloyl)phenoxy)methyl)-1H-1,2,3-triazol-1-yl)ethoxy)tetrahydro-2H-pyran-3,4,5-triyl triacetate] | 4.27 | > 200 | 42.4 | 
COc1ccc(/C=C/C(=O)c2ccc(O)cc2O)cc1OC [11a] | 4.74 | > 200 |  | mortality of Artemia salina nauplii [1]: less than 10%
